The text below walks through data of patent publication US4908380A, “Pharmaceutical compositions” (Imperial Chemical Industries plc, priority 1986, dated 1990).

By pA2 is commonly meant the negative logarithm of the molar antagonist concentration that doubles the agonist concentration needed for the same response. High values mean higher antagonist potency, low ones lower antagonist potency. For orientation: inhibition means the percentage by which the read-out fell short of the control.

In one test the test system is thromboxane receptor. Nature of the test: Test (a): rabbit or rat aortal strip, TXA2 antagonism (agonist TXA2 or U46619). The class given is cell-based. The note with it: ±0.05. From the text:
It is believed that TXA2 exerts its physiological action through the thromboxane receptor, at which receptor various other prostanoid contractile substances derived from arachidonic acid, such as prostaglandins H2, F2 alpha and prostaglandin D2, can exert contractile effects. There are two principal ways in which the effects of TXA2 (and also of prostaglandins H2, F2 alpha and/or D2) can be ameliorated. […] The second way is to administer a pharmacological agent which inhibits one or more of the enzymes involved in the production of TXA2 and in particular, which inhibits the enzyme known as thromboxane synthetase (TXA2 synthetase). Such an agent is said to be a TXA2 synthetase inhibitor.
As stated earlier, the novel compounds of formula I are antagonists of one or more of the actions of TXA2, for example certain of its actions on blood platelets, the vasculature and/or the lung.
(a) The rabbit aortal strip model devised by Piper and Vane (Nature, 1969, 223, 29-35) or the rat aortal strip model developed by Kennedy et alia (Prostaglandins, 1982, 24, 667-689), using as agonist a freshly prepared sample of TXA2, generated by addition of arachidonic acid (25 μg) to citrated, platelet rich rabbit plasma (250 μl) and allowing the mixture to aggregate fully over 90 seconds before use; alternatively the TXA2 mimetic agent known as U46619 (described by R. L. Jones et alia in "Chemistry, Biochemistry and Pharmacological Activity of Prostanoids" edited by S. M. Roberts and F. Scheinmann, at page 211; Pergamon Press, 1979) may be used as the agonist; and
Using the above test procedures (a)-(c), the following representative results have been obtained with the compounds of formula II wherein (i) X^1 is 2-chloro, (ii) X^1 is 2-cyano; or (iii) X^1 is 4-cyano, respectively: […]

Test [1] has as its system arachidonic acid induced aggregation of human platelets. Nature of the test: Arachidonic acid induced aggregation of human platelets in vitro. The class given is cell-based. As to conditions: Platelet, read-out: % Inhibition of vehicle control. The source says: The beneficial effects of combining one of the novel TXA2 antagonists of formula I defined hereinabove with a TXA2 synthetase inhibitor may be illustrated in vitro, for example by evaluating their effects in inhibiting arachidonic acid induced aggregation of human platelets, using standard procedures well known in the art. Thus, for example, the following results were obtained with the TXA2 antagonist described hereinafter in Ex. 2, 6 and 20 (Compound A) and the TXA2 synthetase inhibitor known as dazoxiben (Compound B): […]

The subject of test [2] is U46619 induced hypertension. As to the kind of experiment: Test (d): U46619 induced hypertension in anaesthetised male rats (Alderley Park strain). The class given is in vivo, rat. As to conditions: 1 hour after oral dose of 0.5 mg/kg. Here is the method: (d) Male rats (Alderley Park strain) are anaesthetised with sodium pentobarbital and blood pressure is monitored at the carotid artery. The TXA2 mimetic agent U46619 is administered intravenously at 5 μg/kg via the jugular vein to produce 20-30 mm/Hg (2640-3970 pascal) increase in systolic blood pressure. The process is repeated twice to ensure adequacy of response. A test compound is then administered either intravenously (via the jugular vein) or orally (via a cannula) directly into the stomach and the animal challenged with U46619, five minutes after dosing with test compound and then successively every ten minutes until the hypertensive effect of U46619 is no longer blocked.

Test [3] concerns U46619 induced bronchoconstriction. As to the kind of experiment: Test (c): U46619 induced bronchoconstriction in Konzett-Rossler anaesthetised guinea-pig. The class given is in vivo. As to conditions: 2 hours after oral dosing at 0.05 mg/kg. From the text:
(c) a bronchoconstriction test involving measuring the inhibition by a test compound of the bronchoconstriction induced in the Konzett-Rossler, anaesthetised guinea-pig model (as modified by Collier and James, Brit.J.Pharmacol., 1967, 30, 283-307) by intravenous administration of the TXA2 mimetic agent, U46619 and involving:
(i) obtaining a cumulative dose-response curve to U46619 induced bronchoconstriction by intravenous administration of constant volumes of increasing concentrations of U46619 (0.2-4 μg/kg) in physiological saline solution and expressing bronchoconstriction as the maximum of that theoretically obtainable with no air flow to the test animal;
(ii) generating a cumulative dose-response curve to U46619 induced bronchoconstriction at 30 minute intervals for 3 hours after oral dosing of test compound; and
(iii) calculating a dose-ratio for the test compound (that is the ratio of concentration of U46619 required to cause 50% bronchoconstriction in the presence and absence of test compound) indicating the potency of TXA2 antagonism.

The test system of a further test is diamondback moths. As to the kind of experiment: Catches of diamondback moths (lures).

Take `O=C(O)CC/C=C\C[C@@H]1CO[C@H](c2ccccc2Cl)O[C@@H]1c1ccccc1O` (relative stereo) [(i), 4(Z)-6-([2,4,5-cis]-2-o-chlorophenyl-4-o-hydroxyphenyl-1,3-dioxan-5-yl)hexenoic acid]: the pA2 in the test with thromboxane receptor came out at 8.02. Moreover, the inhibition at 0.001 µM in test [1] (A at 10^-9 M) worked out at 2.2 ± 0.8%. Moreover, the “inhibition of U46619 induced hypertension” value in test [2] is reported as over 80%.
`N#Cc1ccccc1[C@H]1OC[C@@H](C/C=C\CCC(=O)O)[C@@H](c2ccccc2O)O1` (relative stereo) [(ii), 4(Z)-6-([2,4,5-cis]-2-o-cyanophenyl-4-o-hydroxyphenyl-1,3-dioxan-5-yl)hexenoic acid]: in the test with thromboxane receptor, the pA2 stood at 8.09. For the same molecule, the “inhibition of U46619 induced hypertension” value in test [2] is over 80%. In addition, the dose ratio in test [3] is over 32.
In the test with thromboxane receptor, `N#Cc1ccc([C@H]2OC[C@@H](C/C=C\CCC(=O)O)[C@@H](c3ccccc3O)O2)cc1` (relative stereo) [(iii)] came in with a pA2 of 7.45. Moreover, in test [2], the “inhibition of U46619 induced hypertension” value was over 40%. In addition, the dose ratio in test [3] was over 350.
For `O=C(O)CCC/C=C\C[C@@H]1CO[C@H](c2ccccc2Cl)O[C@@H]1c1ccccc1` (relative stereo) [(iv), 5(Z)-7-([2,4,5-cis]-2-o-chlorophenyl-4-phenyl-1,3-dioxan-5-yl)heptenoic acid, reference compound], the pA2 in the test on thromboxane receptor is listed as 6.22.
Still for that read-out and setting: the figure for `N#Cc1ccc([C@H]2OC[C@@H](C/C=C\CCCC(=O)O)[C@@H](c3ccccc3)O2)cc1` (relative stereo) [(v), reference compound] is 5.65.
As for `O=C(O)c1ccc(OCCn2ccnc2)cc1` [B], in test [1] (B at 10^-4 M), the inhibition at 100 µM stood at 32.2 ± 16.3%. In test [1] (B at 10^-5 M), the inhibition at 10 µM is 4.5 ± 1.8%.
On to `CCCC/C=C\CCCCCCCCCCOC(C)=O` [HLA, ( --Z)-11-hexadecenyl acetate], for which the “Weekly catch week 1” value in the test with diamondback moths (week 1) is 0. In addition, in the test with diamondback moths (week 2), the “Weekly catch week 2” value was found to be 1. Besides, the “Weekly catch week 3” value in the test with diamondback moths (week 3) is 5. In the test with diamondback moths (week 4), the “Weekly catch week 4” value is reported as 3.
